This note sets out measurements from patent US5514814A, “Pyrrolinone-based compounds” (Trustees of the University of Pennsylvania, priority 1994, dated 1996).

The target in one experiment is T1, HIV-1 protease (Human immunodeficiency virus type 1 group M subtype B, UniProt P12497).
T1 construct: HIV-1 protease purified generally according to Heimbach; made in house
The experiment can be described thus: Inhibition of purified HIV-1 protease (IC50). The experiment is classed as biochemical. Particulars: HIV-1 protease purified generally according to Heimbach, et al. The procedure:
The extent to which the compounds of the invention for inhibit and prevent the spread of HIV-1 protease was determined generally according to the methods disclosed by Thompson, et al., J. Med. Chem. 1992, 35, 1685. IC50 and CIC95 values were determined using HIV-1 protease purified generally according to Heimbach, et al., Biochem. Biophys. Res. Commun. 1989, 164, 955.
As to `CC(C)CC1(C2=CNC(Cc3ccccc3)(CC(O)C(Cc3ccccc3)NC(=O)OC(C)(C)C)C2=O)NC=C(C(Cc2ccccc2)C(N)=O)C1=O` (stereo not shown) [(11)], the IC50 worked out at 10 nM.
The same measure, in the same setting: next, `CC(C)C[C@@]1(C2=CN[C@@](Cc3ccccc3)(C[C@H](O)[C@H](Cc3ccccc3)NC(=O)O[C@H]3CCOC3)C2=O)NC=C([C@@H](Cc2ccccc2)C(N)=O)C1=O` [(49)]: 1.3 nM.
Molecule `CC(C)C[C@@]1(C2=CN[C@@](Cc3ccccc3)(C[C@H](O)[C@H](Cc3ccccc3)NC(=O)O[C@H]3CCOC3)C2=O)NC=C([C@@H](Cc2ccccc2)C(=O)NC(C)(C)C)C1=O` [(53)] registered an IC50 of 3.3 nM.
The same measure, in the same setting: next, `CC(C)C[C@@]1(C2=CN[C@@](Cc3ccccc3)(C[C@H](O)[C@H](Cc3ccccc3)NC(=O)OC(C)(C)C)C2=O)NC=C([C@@H](Cc2ccccc2)C(=O)NC(C)(C)C)C1=O` [(54)]: 48 nM; `COC(=O)[C@H](Cc1ccccc1)C1=CN[C@@](CC(C)C)(C2=CN[C@@](Cc3ccccc3)(C[C@H](O)[C@H](Cc3ccccc3)NC(=O)O[C@H]3CCOC3)C2=O)C1=O` [(58)]: 2 nM; `COC(=O)[C@H](Cc1ccccc1)C1=CN[C@@](CC(C)C)(C2=CN[C@@](Cc3ccccc3)(C[C@H](O)[C@H](Cc3ccccc3)NC(=O)OC(C)(C)C)C2=O)C1=O` [(59)]: 37 nM.
On to `O=C(N[C@@H](Cc1ccccc1)[C@@H](O)C[C@]1(Cc2ccccc2)NC=C([C@H]2c3ccccc3C[C@H]2O)C1=O)O[C@H]1CCOC1` [(67)], for which the 50% inhibitory concentration (IC50) worked out at 2 nM.
Still for that read-out and setting: to `CC(C)(C)OC(=O)N[C@@H](Cc1ccccc1)[C@@H](O)C[C@]1(Cc2ccccc2)NC=C([C@H]2c3ccccc3C[C@H]2O)C1=O` [(68)] belongs 11.9 nM.

In a further experiment the target is HIV1 (Human immunodeficiency virus type 1 (NEW YORK-5 ISOLATE), UniProt P12497). Kind of experiment: Effective HIV1 inhibitor at stated concentration. In kind it is biochemical.
Conditions: not given
For the molecule `CC(C)=CCC1(Cc2ccccc2)NC=C(C2(CC(C)C)NC=C(C(CC3CCCCC3)C(O)C(O)CC(C)C)C2=O)C1=O` (stereo not shown) [Structure (9a)], the “found to act as effective HIV1 inhibitor at (concentration)” value is 3.5 µM.

The next experiment relates to renin. The experiment can be described thus: Effective renin inhibitor at stated concentration. The experiment is classed as biochemical.
Conditions: not given
Regarding `CC(C)=CCC1(Cc2ccccc2)NC=C(C(CC(C)C)C(=O)NC(CC2CCCCC2)C(O)C(O)CC(C)C)C1=O` [Structure (10a), 5(S)-prenyl-(5-benzyl)pyrrolin-4-one-3!-2(R)-isobutylacetate-1-amino-1(S)-cyclohexylmethyl-2(R)3 3 (S)-dihydroxy-5-methylhexane!-amide], the “found to act as an effective renin inhibitor at (concentration)” value came out at 700 nM.
